According to patent publication US20090203523A1, “Fungicidal Mixtures Made From 1-Methylpyrazol-4-Ylcarboxanilides” (BASF AKTIENGESSELLSCHFT, priority 2005, published 2009):

How the values were obtained:
Puccinia recondita [1] = assay: Curative activity against brown rust of wheat; assay type: in vivo; conditions: wheat seedlings, efficacy in % of untreated control, 7 days
Pyrenophora teres = assay: Activity against net blotch of barley, 1 day protective application; assay type: in vivo; conditions: barley seedlings, efficacy in % of untreated control, evaluated after 6 days
Phytophthora infestans = assay type: cell-based; conditions: 0.25 mg/l; microtiter plate, absorption at 405 nm on day 7
Botrytis cinerea = assay: Activity against gray mold on bell pepper leaves, 1 day protective use; assay type: in vivo; conditions: 16 mg/l; bell pepper seedlings, efficacy in % of untreated control, evaluated after 5 days
Puccinia recondita [2] = assay: Protective activity against brown rust of wheat; assay type: in vivo; conditions: wheat seedlings, efficacy in % of untreated control

Fc1ccc([C@]2(Cn3cncn3)O[C@H]2c2ccccc2Cl)cc1 (racemic) [epoxiconazole, (2RS,3SR)-1-[3-(2-chlorophenyl)-2,3-epoxy-2-(4-fluorophenyl)propyl]-1H-1,2,4-triazole, reference compound]
Observed activity (efficacy, % of untreated control) (Puccinia recondita [1]; 0.063 mg/l): 0%

CC1CCN(c2c(-c3c(F)cc(F)cc3F)c(Cl)nc3ncnn23)CC1 [5-chloro-7-(4-methylpiperidin-1-yl)-6-(2,4,6-trifluorophenyl)-[1,2,4]triazolo[1,5-a]pyrimidine]
Observed activity (Pyrenophora teres; 1 mg/l): 44%

Cn1cc(C(=O)Nc2ccccc2-c2ccc(C(F)(F)F)cc2)c(C(F)(F)F)n1 [No. I.1, N-(4′-trifluoromethylbiphenyl-2-yl)-1-methyl-3-trifluoromethyl-1H-pyrazole-4-carboxamide]
Observed activity (% infection) (Phytophthora infestans): 3% | melting point: 175 to 177 °C | Observed activity (Pyrenophora teres; 0.25 mg/l): 11% | Observed activity (Pyrenophora teres; 1 mg/l): 56%

Cn1cc(C(=O)Nc2ccccc2-c2ccc(C(F)(F)F)cc2)c(C(F)F)n1 [No. I.2, N-(4′-trifluoromethylbiphenyl-2-yl)-3-difluoromethyl-1-methyl-1H-pyrazole-4-carboxamide]
melting point: 164 to 165 °C | Observed efficacy (% of untreated control) (Botrytis cinerea): 70% | Observed activity (efficacy, % of untreated control) (Puccinia recondita [1]; 0.25 mg/l): 0% | Observed activity (efficacy, % of untreated control) (Puccinia recondita [1]; 1 mg/l): 56% | Observed efficacy (% of untreated control) (Puccinia recondita [2]; 16 mg/l): 0%

Cn1nc(C(F)(F)F)c(C(=O)Nc2ccccc2-c2ccc(C(F)(F)F)cc2)c1F [No. I.3, N-(4′-trifluoromethylbiphenyl-2-yl)-1-methyl-3-trifluoromethyl-5-fluoro-1H-pyrazole-4-carboxamide]
melting point: 170 to 173 °C

Cc1nn(C)c(Cl)c1C(=O)Nc1ccccc1-c1ccc(C(F)(F)F)cc1 [No. I.5, N-(4′-trifluoromethylbiphenyl-2-yl)-1,3-dimethyl-5-chloro-1H-pyrazole-4-carboxamide]
melting point: 173 to 175 °C

Cc1nn(C)cc1C(=O)Nc1ccccc1-c1ccc(C(F)(F)F)cc1 [No. I.6, N-(4′-trifluoromethylbiphenyl-2-yl)-1,3-dimethyl-1H-pyrazole-4-carboxamide]
melting point: 174 to 177 °C

Cn1cc(C(=O)Nc2ccccc2-c2ccc(C(F)(F)F)cc2)c(CF)n1 [No. I.7, N-(4′-trifluoromethylbiphenyl-2-yl)-1-methyl-3-fluoromethyl-1H-pyrazole-4-carboxamide]
melting point: 156 to 158 °C

Cn1nc(Cl)c(C(=O)Nc2ccccc2-c2ccc(C(F)(F)F)cc2)c1C(F)F [No. I.8, N-(4′-trifluoromethylbiphenyl-2-yl)-1-methyl-3-chlorodifluoromethyl-1H-pyrazole-4-carboxamide]
melting point: 193 to 196 °C

N#Cc1c(Cl)c(Cl)c(Cl)c(C#N)c1Cl [chlorthalonil, 2,4,5,6-tetrachloroisophthalonitrile, reference compound]
Observed activity (efficacy, % of untreated control) (Puccinia recondita [1]; 16 mg/l): 0% | Observed activity (Pyrenophora teres; 16 mg/l): 0%

COc1ccc(C(=CC(=O)N2CCOCC2)c2ccc(Cl)cc2)cc1OC [dimethomorph, 3-(4-chlorophenyl)-3-(3,4-dimethoxyphenyl)-1-morpholin-4-yl-propenone]
Observed efficacy (% of untreated control) (Puccinia recondita [2]; 63 mg/l): 0% | Observed activity (Pyrenophora teres; 16 mg/l): 0%

COc1cc(C)c(C(=O)c2c(OC)ccc(Br)c2C)c(OC)c1OC [metrafenone, 3′-bromo-2,3,4,6′-tetramethoxy-2′,6-dimethylbenzophenone]
Observed efficacy (% of untreated control) (Puccinia recondita [2]; 63 mg/l): 0% | Observed activity (Pyrenophora teres; 4 mg/l): 0%

COC(=O)N(OC)c1ccccc1COc1ccn(-c2ccc(Cl)cc2)n1 [pyraclostrobin, methyl N-{2-[1-(4-chlorophenyl)-1H-pyrazol-3-yloxymethyl]phenyl}(N-methoxy)carbamate, reference compound]
Observed efficacy (% of untreated control) (Botrytis cinerea): 10%

CC1(C)CC/C(=C\c2ccc(Cl)cc2)C1(O)Cn1cncn1 (stereo not shown) [triticonazole, (5E)-5-[(4-chlorophenyl)methylene]-2,2-dimethyl-1-(1H-1,2,4-triazol-1-ylmethyl)cyclopentanol, reference compound]
Observed activity (% infection) (Phytophthora infestans): 0%

zinc ammoniate ethylenebis(dithiocarbamate) [metiram]
Observed activity (Pyrenophora teres; 16 mg/l): 0%
